This test has as its target Insulin-like growth factor 1 receptor (Homo sapiens, UniProt P08069). The test is described as follows: Inhibition of human IGF1R kinase domain (M954 to C1367 residues) tri-phosphorylated enzyme form expressed in baculovirus based expression system using poly-EY peptide incubated for 2 hrs by luciferase-luciferin coupled chemiluminescent assay.

Each structure is given as a SMILES string.

Insulin-like growth factor 1 receptor, sequence (P08069 31-736 limits assumed): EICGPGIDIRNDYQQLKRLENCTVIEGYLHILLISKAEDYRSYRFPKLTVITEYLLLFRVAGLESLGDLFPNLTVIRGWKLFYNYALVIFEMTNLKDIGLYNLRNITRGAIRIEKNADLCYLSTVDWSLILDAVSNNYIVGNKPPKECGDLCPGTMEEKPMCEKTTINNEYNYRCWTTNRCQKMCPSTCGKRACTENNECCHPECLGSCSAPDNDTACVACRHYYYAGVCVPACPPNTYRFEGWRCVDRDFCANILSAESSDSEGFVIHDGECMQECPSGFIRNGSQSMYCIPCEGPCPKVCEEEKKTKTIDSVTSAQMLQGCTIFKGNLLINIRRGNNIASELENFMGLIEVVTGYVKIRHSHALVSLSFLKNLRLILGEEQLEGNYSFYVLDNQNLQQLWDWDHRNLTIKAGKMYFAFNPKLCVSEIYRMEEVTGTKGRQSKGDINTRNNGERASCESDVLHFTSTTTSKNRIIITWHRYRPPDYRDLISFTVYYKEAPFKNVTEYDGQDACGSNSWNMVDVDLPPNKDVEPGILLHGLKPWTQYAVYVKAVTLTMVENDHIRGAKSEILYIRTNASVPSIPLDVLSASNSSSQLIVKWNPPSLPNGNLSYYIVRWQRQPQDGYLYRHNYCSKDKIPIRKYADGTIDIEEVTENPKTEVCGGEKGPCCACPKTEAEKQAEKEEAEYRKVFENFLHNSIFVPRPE
Insulin-like growth factor 1 receptor, sequence (P08069 741-1367 limits assumed): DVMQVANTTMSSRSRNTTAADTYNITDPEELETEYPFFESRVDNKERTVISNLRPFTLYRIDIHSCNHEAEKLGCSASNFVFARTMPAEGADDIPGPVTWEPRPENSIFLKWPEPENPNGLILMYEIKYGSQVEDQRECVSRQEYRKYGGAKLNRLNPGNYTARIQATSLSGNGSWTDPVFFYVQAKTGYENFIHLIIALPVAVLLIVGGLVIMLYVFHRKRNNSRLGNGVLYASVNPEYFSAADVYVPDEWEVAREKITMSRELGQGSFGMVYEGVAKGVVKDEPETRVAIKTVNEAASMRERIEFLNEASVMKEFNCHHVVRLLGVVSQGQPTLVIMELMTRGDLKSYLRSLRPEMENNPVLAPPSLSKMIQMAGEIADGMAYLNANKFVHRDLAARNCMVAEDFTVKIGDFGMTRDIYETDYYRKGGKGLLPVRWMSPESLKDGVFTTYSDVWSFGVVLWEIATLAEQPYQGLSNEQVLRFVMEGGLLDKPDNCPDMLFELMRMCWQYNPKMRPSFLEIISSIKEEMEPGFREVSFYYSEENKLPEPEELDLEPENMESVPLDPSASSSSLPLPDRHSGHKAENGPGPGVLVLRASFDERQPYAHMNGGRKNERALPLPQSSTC

Turning to `COc1cc(Nc2nc(C)cc(Nc3cc(C4CC4)n[nH]3)n2)cc([N+](=O)[O-])c1`, the IC50 (in general, the concentration needed to halve the response being measured) was no less than 5 µM.

For the origin of these results see ChEMBL document CHEMBL3882726, “Pyrimidine Derivatives As Kinase Modulators and Method of Use” (2008).
